From article PMC2851405 (Biochemistry, 2010)

Target: HPAO-1 (Ogataea angusta, UniProt P12807)
Experiment: phenylhydrazone formation, absorbance
Type: binding
Details: covalent; adduct with TPQ cofactor

HPAO-1, sequence (P12807 whole entry): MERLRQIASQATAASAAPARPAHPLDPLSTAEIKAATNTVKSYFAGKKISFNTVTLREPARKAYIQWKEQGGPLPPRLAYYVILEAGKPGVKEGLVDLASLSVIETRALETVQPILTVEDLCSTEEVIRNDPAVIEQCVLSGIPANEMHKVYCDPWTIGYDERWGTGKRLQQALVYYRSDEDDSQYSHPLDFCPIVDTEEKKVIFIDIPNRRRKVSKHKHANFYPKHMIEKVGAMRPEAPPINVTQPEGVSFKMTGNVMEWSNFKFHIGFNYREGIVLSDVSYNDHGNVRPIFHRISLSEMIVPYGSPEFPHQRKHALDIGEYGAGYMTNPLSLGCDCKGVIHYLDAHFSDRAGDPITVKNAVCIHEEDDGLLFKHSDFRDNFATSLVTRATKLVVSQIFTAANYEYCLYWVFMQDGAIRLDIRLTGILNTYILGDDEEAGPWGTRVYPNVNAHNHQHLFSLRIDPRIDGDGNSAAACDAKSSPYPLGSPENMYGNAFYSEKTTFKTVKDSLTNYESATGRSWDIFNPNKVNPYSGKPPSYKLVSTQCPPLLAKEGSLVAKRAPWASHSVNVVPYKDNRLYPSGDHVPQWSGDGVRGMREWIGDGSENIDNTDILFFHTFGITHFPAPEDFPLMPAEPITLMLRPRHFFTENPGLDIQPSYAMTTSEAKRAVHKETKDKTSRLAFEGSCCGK

NNc1ccccc1 [phenylhydrazine]
rate of phenylhydrazone formation: 0.0078 ± 0.0007 s⁻¹
